Experimental data: patent publication US20260034192A1 (University of Saskatchewan, priority 2022, published 2026)
“And” between values parts separate entries of the source, which are not always exact repeats. Equal values may be shown once. Marks after values point to notes of the source that are not given here. Ends that are not written are not given here.

Experiments:
Type in all cases: in vivo, cattle
[1] = tested on: Hereford crossbred heifers; experiment: Cetrorelix pre-treatment before kisspeptin-10 in low-progesterone heifer model (Example 1); details: for Ovulation rate after treatments: number of heifer/total: extant dominant follicle
Description: Methods: The human Kisspeptin-10 (hKP-10) peptide (YNWNSFGLRF-NH2; SEQ ID NO: 1) was custom synthetized at >95% of purity (MW: 1318.44 g/mol) by GenScript USA Inc, Piscataway, NJ, USA. The sequence is based on the predicted C-terminal region (112-121-NH2) of human metastin (Gen Bank accession #AY117143) and has been previously used in cattle. The peptide was previously tested for solubility and was dissolved in ultrapure water at 10 mg/mL.
The heifers were maintained in outdoor pens at the University of Saskatchewan Goodale Research Farm (52° north and 106° west). Heifers were fed barley silage and had hay and water ad libitum. A mineral salt block was available to heifers throughout the study period. All procedures were performed in accordance with Canadian Council on Animal Care and were approved by the University of Saskatchewan Protocol Review Committee.
Immediately after ultrasound examination, heifers were given PGF2a twice at an interval of 12-hours. The low-progesterone bovine model described previously (Leonardi et al. 2019) was used to test the hypothesis. Briefly, the ovaries were examined daily by ultrasonography to detect ovulation. Three days after ovulation, follicles ≥5 mm in diameter in both ovaries were ablated by transvaginal ultrasound-guided follicle aspiration, inducing the emergence of new follicular wave 1.5 days after the procedure (Bergfelt et al. 1994). After follicular ablation, a progesterone device was placed in the vagina (CIDR; Zoetis). The day of wave emergence (Day 0) was defined as the day when the follicle of wave was first recorded (4 to 5 mm in diameter) with concurrent increase in diameter. Heifers were given PGF2α im on Days 3.5 and 4 (i.e., 8 and 8.5 days after ovulation) to cause luteolysis, however, the CIDR devices were left in place until Day 12 to maintain a low-progesterone milieu sufficient to prevent spontaneous ovulation. On Day 6, an indwelling jugular catheter was placed as described (Bergfelt et al. 1997) and heifers were assigned randomly to three groups (n=5 per group): 1) 3 iv doses of 15 mg human kisspeptin-10 at 1 h intervals (Kp10 group), 2) pretreatment with single im dose of Cetrorelix acetate (20 μg/Kg of body weight, GnRH antagonist—Sigma #C5249 diluted in 5% D-Manitol w/v, Sigma #M4125) followed 3 h later with 3 iv doses of 15 mg human kisspeptin-10 at 1 h intervals (Cetrorelix group), or 3) 3 iv doses of normal saline at 1 h intervals (Control group). Following treatment (on Day 6), ovarian ultrasound examinations were performed daily until the end of the experiment to detect ovulation of the extant dominant follicle (i.e., dominant follicle present at the time of treatment) or of the dominant follicle originating from a subsequent wave. The progesterone device was withdrawn on Day 12 (i.e., thirteen days after insertion) and ultrasound examinations were continued until ovulation was detected.
Blood samples and hormone assays: Serial blood samples on the day of treatment were collected at 15 minute intervals from −30 to 150 min (0 min=time of first hKP-10 or saline injection) using the indwelling jugular catheter. All blood samples were collected in heparinized tubes (Vacutainer, BD, Franklin Lakes NJ, USA). Immediately after sampling, tubes were centrifuged at 1,500×g for 15 min, and plasma was separated and stored at −20° C.
The plasma samples from both experiments were analyzed for LH and progesterone concentration at the University of Wisconsin (Madison, WI, USA) in Dr O. J. Ginther's Research Laboratory. Plasma LH concentrations were measured with a validated radioimmunoassay for cattle (Bolt et al. 1990) with modifications as reported Ginther et al. 1999). Briefly, LH concentrations were measured in duplicate using USDA-bLH-B-6 for ^125I-iodination and for preparing reference standards, and USDA-309-684P as the primary antibody (National Hormone and Pituitary Program, Torrance, CA, USA). […]

mature Angus heifers = experiment: Cetrorelix versus estradiol benzoate synchronization protocol with AI, random day of cycle (Example 7)
Description: This experiment was conducted on 38 mature Angus heifers at the Federal University of Santa Maria in Brazil. Heifers on a random day of the cycle (defined as Day 0) were divided into 2 groups (n=19 per group) and treated with a single i/m injection of 3 mg cetrorelix or with estradiol benzoate (1 mg i/m). A progesterone-releasing device (CIDR) was placed in the vagina of heifers at this time. Eight days after the cetrorelix or estradiol treatments, heifers were given 500 ug cloprostenol (prostaglandin analog) i/m injections and the CIDR device was removed. […] Heifers were given 250 ug gonadorelin acetate (GnRH analog) i/m injection at the time of artificial insemination. […] Pregnancy diagnosis was done 29-30 days after artificial insemination.

[2] = tested on: Brahman x Angus cross beef post-partum cows; experiment: Field trial of fixed-time AI after cetrorelix versus estradiol protocol (Example 8)
Description: This field trial was conducted by a faculty member of the Federal University of Santa Maria at a client beef farm in Brazil in December 2022. A total of 216 Brahman x Angus cross beef post-partum cows were used for this experiment. Cows were divided into two treatment groups ([…]) and were either given cetrorelix 3 mg i/m or estradiol benzoate on a random day of the cycle (defined as Day 0). An intravaginal progesterone device (CIDR) was placed in all cows on Day 0. The CIDR devices were removed on Day 8 and animals were given prostaglandin F2a analog and equine choriogonadotropin (eCG). Fixed-time artificial insemination was done 54 hrs after CIDR removal and animals were given GnRH at this time. Pregnancy diagnosis was performed on Day 30 after artificial insemination. Transrectal ultrasound examinations were performed on Day 0, Day 8, Day 10 and Day 40.

[3] = Day 6 of wave, low progesterone, Kp10 3 x 15 mg iv, Cetrorelix 20 μg/Kg im 3 h before Kp10
[4] = Kp10 3 x 15 mg iv, Cetrorelix 20 μg/Kg im 3 h before Kp10
[5] = 3 mg cetrorelix or 1 mg estradiol benzoate i/m
[6] = 30 days after fixed-time artificial insemination

## Kp10: human Kisspeptin-10 (hKP-10) peptide YNWNSFGLRF-NH2; SEQ ID NO: 1 (listed as Homo sapiens)
[1]; Day 6 of wave, low progesterone, Kp10 3 x 15 mg iv
  Interval between treatment and ovulation (hours after treatment): 48 h
[1]; [3]
  Dominant follicle diameter 24 h after treatment: 12.24 ± 0.89 mm
  Dominant follicle diameter 48 h after treatment: 16.51 mm
  Dominant follicle diameter at time of treatment: 11.34 ± 0.91 mm
  Ovulation rate after treatments: number of heifer/total: 4 of 5 and 4/5^a
[1]; Day 6 of wave, low progesterone, Kp10 3 x 15 mg iv, Cetrorelix single im 20 μg/Kg 3 h before Kp10
  Emergence of a new follicular wave after treatment: 2.75 ± 0.75 days
[1]; Day of follicular wave
  Day of ovulation of new dominant follicles after CIDR removal (Day 12): 15
[1]; [4]
  Heifers in which a new wave emergence occurred: 4 of 5
  Number of ovulations after CIDR removal on Day 12: Extant dominant follicle: 1/1
  Number of ovulations after CIDR removal on Day 12: New dominant follicle: 4/4
  Plasma LH concentration / kisspeptin-induced LH surge: higher plasma LH concentrations
[1]; Day 6 of wave, low progesterone, Kp10 3 x 15 mg iv, Cetrorelix 20 μg/Kg im 3 h before Kp10, listed as kisspeptin
  Ovulation rate after treatments: number of heifer/total: 4 out of 5

## C[C@]12CC[C@@H]3c4ccc(OC(=O)c5ccccc5)cc4CC[C@H]3[C@@H]1CC[C@@H]2O [Estradiol benzoate, estradiol benzoate]
Mature Angus heifers; [5]
  Pregnant/Double AI: 7/12
  Pregnant/Double AI, percent: 58%
  Pregnant/Single AI: 6/7
  Pregnant/Single AI, percent: 86%
Mature Angus heifers; random day of cycle, 3 mg cetrorelix i/m or 1 mg estradiol benzoate i/m, CIDR 8 days
  Pregnant/Total, percent (pregnancy rate): 68%
Mature Angus heifers; random day of cycle, 3 mg cetrorelix i/m or 1 mg estradiol benzoate i/m, CIDR 8 days, PGF, GnRH at AI
  Pregnant/Total: 13/19
[2]; [6]
  Conception rate: Percent: 45.6%
  Conception rate: Pregnant/AI: 48/106*
[2]; 30 days after fixed-time artificial insemination, listed as estradiol
  Conception rate: Percent: 45.6%
[2]; cetrorelix 3 mg i/m or estradiol benzoate on Day 0, CIDR removal Day 8, in mm
  Size of the dominant follicle on Day 8 (at PGF): 8.60 ± 0.39
[2]; cetrorelix 3 mg i/m or estradiol benzoate on Day 0, in mm
  Size of the dominant follicle on Day 10 (at AI): 11.38 ± 0.56
